Measurements from patent publication US7402601B2, “Pharmaceuticals for the treatment of rejection reactions in organ transplantations” (Sanofi-Aventis Deutschland GmbH, priority 1991, dated 2008).

Assays:
in vivo = conditions: ip
Method: Acute Toxicity after Intraperitoneal Administration
The acute toxicity after intraperitoneal administration of the test substances was determined with NMRI mice (20 to 25 g) and SD rats (120 to 195 g). The test substance was suspended in a 1% strength sodium carboxymethyl-cellulose solution. The different dosages of the test substance were administered to the mice in a volume of 10 ml/kg of body weight and to the rats in a volume of 5 ml/kg of body weight. Per dosage, 10 animals were used. After 3 weeks, the acute toxicity was determined by the method of Litchfield and Wilcoxon.

allophilic antibodies = experiment: Formation of allophilic antibodies after heart transplantation (Brown-Norway to Lewis rats), complement cytotoxicity on donor spleen cells, Trypan Blue exclusion; type: in vivo
Method: The action of compound 2 on the formation of allophilic antibodies.
Male Brown-Norway rats with a weight of 200 to 250 g are used as heart donors. The hearts are transplanted into male Lewis rats of the same weight. All rats are supplied with a standard diet and water and kept in an environment with 12 hours of light and darkness.
[…] The titer of allophilic antibodies in the blood of the recipient rats is determined by incubating various dilutions of the recipient blood with spleen cells of the donor rats (Brown-Norway rats) and rabbit complement. The cytotoxicity is determined by the Trypan Blue exclusion method. The p value for the antibodies is determined using the standard t-test and compared with the untreated control animals.
Treatment with compound 2 begins on the 4th day after transplantation. 10 mg/kg of compound 2 in each case are administered i.p. once per day. The number of animals which are simultaneously treated is 5 (n=5). Treatment ends on the 17th day.

[1] = test system: naturally occurring xenophilic antibodies (NXA); experiment: Naturally occurring xenophilic antibodies (NXA) in non-sensitized rats, flow cytometry; type: in vivo; conditions: non-sensitized LEW rats, 10 mg/kg every day i.p., 11th day
Method: 2 to 3 month-old rats (LEW) are intraperitoneally (i.p.) sensitized with 2×10^7 human peripheral blood lymphocytes. The i.p. administration of compound 2 starts 4 days before sensitization and ends 10 days after sensitization of the rats. Serum samples are taken from the tail vein and stored at −80° C.; the activity of complement is avoided by heat deactivation.
The naturally occurring xenophilic antibodies (NXA) and the xenophilic antibodies induced by sensitization (SXA) are titrated and live human peripheral blood lymphocytes are added (45 min. at 20° C.). After intensive washing, FITC-labeled goat-anti-rat IgG or IgM antibodies are added and the binding to SXA or NXA is quantitatively determined by flow cytometry (FACScan, Becton Dickinson).
The serum of male LEW rats contain NXA which bind to vital human peripheral blood lymphocytes, to be precise usually with an average IgM titer of 1:4 and an average IgG titer of less than 1:1. The rats (n=8) which are treated every day with 10 mg/kg of compound 2, show a 30% reduction in their IgG titer and a 50% reduction in their IgM titer on the 11th day.

## Cc1oncc1C(=O)Nc1ccc(C(F)(F)F)cc1 [Compound 1, N-(4-trifluoromethyl)-5-methylisoxazole-4-carboxanilide]
In vivo; NMRI, mouse
  LD50 at 3 weeks: 185 mg/kg
In vivo; SD, rat
  LD50 at 3 weeks: 170 mg/kg

## C/C(O)=C(\C#N)C(=O)Nc1ccc(C(F)(F)F)cc1 [Compound 2, N-(4-trifluoromethylphenyl)-2-cyano-3-hydroxycrotonamide]
Allophilic antibodies; serum dilution 1:5, day 0 after transplantation (before treatment start on day 4), 10 mg/kg i.p. once per day
  mean of the cytotoxicity values: 3%
Allophilic antibodies; serum dilution 1:5, day 4 after transplantation (treatment begins), 10 mg/kg i.p. once per day
  mean of the cytotoxicity values: 63%
Allophilic antibodies; serum dilution 1:5, day 7 after transplantation, 10 mg/kg i.p. once per day from day 4
  mean of the cytotoxicity values: 36%
Allophilic antibodies; serum dilution 1:5, day 11 after transplantation, 10 mg/kg i.p. once per day from day 4
  mean of the cytotoxicity values: 19%
Allophilic antibodies; serum dilution 1:5, day 14 after transplantation, 10 mg/kg i.p. once per day from day 4
  mean of the cytotoxicity values: 22%
Allophilic antibodies; serum dilution 1:5, day 17 after transplantation, 10 mg/kg i.p. once per day from day 4
  mean of the cytotoxicity values: 11%
Allophilic antibodies; serum dilution 1:25, day 0 after transplantation (before treatment start on day 4), 10 mg/kg i.p. once per day
  mean of the cytotoxicity values: 3%
Allophilic antibodies; serum dilution 1:25, day 4 after transplantation (treatment begins), 10 mg/kg i.p. once per day
  mean of the cytotoxicity values: 58%
Allophilic antibodies; serum dilution 1:25, day 7 after transplantation, 10 mg/kg i.p. once per day from day 4
  mean of the cytotoxicity values: 31%
Allophilic antibodies; serum dilution 1:25, day 11 after transplantation, 10 mg/kg i.p. once per day from day 4
  mean of the cytotoxicity values: 16%
Allophilic antibodies; serum dilution 1:25, day 14 after transplantation, 10 mg/kg i.p. once per day from day 4
  mean of the cytotoxicity values: 11%
Allophilic antibodies; serum dilution 1:25, day 17 after transplantation, 10 mg/kg i.p. once per day from day 4
  mean of the cytotoxicity values: 6%
Allophilic antibodies; serum dilution 1:125, day 0 after transplantation (before treatment start on day 4), 10 mg/kg i.p. once per day
  mean of the cytotoxicity values: 4%
Allophilic antibodies; serum dilution 1:125, day 4 after transplantation (treatment begins), 10 mg/kg i.p. once per day
  mean of the cytotoxicity values: 34%
Allophilic antibodies; serum dilution 1:125, day 7 after transplantation, 10 mg/kg i.p. once per day from day 4
  mean of the cytotoxicity values: 20%
Allophilic antibodies; serum dilution 1:125, day 11 after transplantation, 10 mg/kg i.p. once per day from day 4
  mean of the cytotoxicity values: 9%
Allophilic antibodies; serum dilution 1:125, day 14 after transplantation, 10 mg/kg i.p. once per day from day 4
  mean of the cytotoxicity values: 6%
Allophilic antibodies; serum dilution 1:125, day 17 after transplantation, 10 mg/kg i.p. once per day from day 4
  mean of the cytotoxicity values: 5%
[1]
  reduction in IgG titer (NXA): 30%
  reduction in IgM titer (NXA): 50%
In vivo; NMRI, mouse
  LD50 at 3 weeks: 150 mg/kg
